Where a SMILES comes first, the peptide text is derived from it. [ ]: non-standard residue; d: D form.

In the first assay the test system is murine Treg (CD25+ T cells). Kind of assay: In vitro Treg suppression assay ([3H]-thymidine, anti-CD3). In kind it is cell-based, BALB/c mice. Conditions: peptide 100 μM. Here is the method:
Spleen was harvested from BALB/c mice (Harlan Laboratories) and homogenized with a 1-ml syringe through a 100-μm cell strainer into a 50-ml conical tube and rinsed two times with PBS (Calcium free) to recover all cells. Cell homogenate was centrifuged at 300×g for 10 min and resuspended homogenate in 1 ml ACK Lysis buffer solution per spleen. Gently swirled for 2 min and then the reaction was quenched by adding 12 ml of PBS.
Cells were centrifuged at 300×g for 10 min and purification of CD25− and CD25+ cells was carried out using magnetic beads (Miltenyi, CD25 microbead kit MOUSE, Ref 130-091-072)), following manufacturer's instructions. After labelling the cells, they were purified using Automacs-Pro device following manufacturer's instructions. Negative fraction corresponded to CD25− cells, which was used as effector Tconv cells. Positive fraction corresponded to CD25+ T cells that was used as Treg cells. Flow cytometry using anti-CD25-APC labeled and anti-CD4-FITC labelled antibodies was used to confirm the purity of isolated cells. Foxp3 expression was analyzed using the anti-Foxp3 staining antibody labelled with APC according to manufacturer's instructions (eBioscience). Purified cells were washed, resuspended in culture medium and diluted in T-cell culture medium (RPMI 1640, supplemented with 10% Fetal bovine serum and antibiotics) at a concentration of 2×10^5/ml (for Tregs) and 2×10^6/ml (for Tconv), for the assay (See below)
The first in vitro assays to measure regulatory T-cell (Treg) function were described by two groups over a decade ago. […] With this knowledge, it was shown that CD4+CD25+ T cells could potently suppress the proliferation of activated CD4+CD25− and CD8+ T cells when the populations were cocultured in vitro. The following protocol describes a basic type of in vitro Treg suppression assay where Treg function is measured in the absence of antigen-presenting cells (APCs). In this protocol, activation is mediated by anti-CD3 antibodies and includes only two cell types, the target Tconv and Tregs. In this protocol, the experiment is setup in a 96-well round-bottom plate in a total volume of 200 μl. All reagents are prepared at four times their desired final concentration and added to assay in 50 μl such that the total volume is 200 μl, thus obtaining the desired final concentration of reactives. Purified Tregs and Tconv prepared as described above were diluted and adjusted in T-cell culture medium to 2×10^5/ml and 2×10^6/ml, respectively. In round-bottom 96-well plate, Tregs and Tconv were added in 50 μl of culture media each (RPMI 1640, supplemented with 10% Fetal bovine serum, and antibiotics). Anti-CD3 antibody was added in 50 μl (final concentration will be 2.5 μg/ml) as a stimulus to induce T cell proliferation. 50 μL of each one of the peptides to be tested were added in the corresponding wells at a concentration of 100 μM and those which provided the best results were tested again at lower concentrations to determine the IC50 value. The final volume was 200 μl in all wells. Tconv alone, Tconv plus anti-CD3, Tconv+anti-CD3+ Treg or Tconv+anti-CD3+Treg+peptides were tested by quadruplicate. Tconv plus anti-CD3 with no Treg was used to determine maximum proliferation of Tconv whereas Tconv+anti-CD3+ Treg was used to determine Treg inhibition. Plates were incubated at 37° C., 5% CO2 for 72 h and then pulsed with 0.1 μCi [^3H]-thymidine (in 25 μl of culture medium per well). After 8 h of incubation, cell cultures were harvested with a cell harvester (Perkin Elmer) and using unifilter plates. Plates were then dried at 50° C., and scintillation reagent (25 μl)(Microscint, Perkin Elmer) was added to each well. Counts per minute (cpm) were determined with a direct beta counter (TopCount, Perkin Elmer).
The results of in vitro Treg suppression assays are most commonly reported as cpm when [^3H]-thymidine is incorporated into proliferating cells. […]
Regarding H-RDFQSFRKMWPFFAM-OH [compound 1], the “Treg inhibition - % inhibition (100 μM)” value came to 115.6%.

Still in this assay, the particulars now being: read-out: IC50 (peptide concentration able to inhibit 50% of Treg activity).
On to `CSCC[C@H](NC(=O)[C@H](CCCCN)NC(=O)[C@H](CCCNC(=N)N)NC(=O)[C@H](Cc1ccccc1)NC(=O)[C@H](CO)NC(=O)[C@H](CCC(N)=O)NC(=O)[C@H](Cc1ccccc1)NC(=O)[C@H](C)NC(=O)[C@@H](N)CCCNC(=N)N)C(=O)N[C@@H](Cc1c[nH]c2ccccc12)C(=O)N1CCC[C@H]1C(=O)N[C@@H](Cc1ccccc1)C(=O)N[C@@H](Cc1ccccc1)C(=O)N[C@@H](C)C(=O)N[C@H](CCSC)C(=O)O` [compound 47] (H-RAFQSFRKMWPFFA[dM]-OH; N-terminus and C-terminus assumed), for which the IC50 was 35 µM. With H-RDFQSFRKMWPFFAM-OH [compound 1], the IC50 turned out to be 38.3 µM. Same read-out and setting: as for `CSCC[C@@H]1NC(=O)[C@H](C)NC(=O)[C@H](Cc2ccccc2)NC(=O)[C@H](Cc2ccccc2)NC(=O)[C@@H]2CCCN2C(=O)[C@H](Cc2c[nH]c3ccccc23)NC(=O)[C@H](CCSC)NC(=O)[C@H](CCCCN)NC(=O)[C@H](CCCNC(=N)N)NC(=O)[C@H](Cc2ccccc2)NC(=O)[C@H](C)NC(=O)[C@H](CCC(N)=O)NC(=O)[C@H](Cc2ccccc2)NC(=O)[C@H](C)NC(=O)[C@H](CCCNC(=N)N)NC1=O` [compound 50] (cyclo(RAFQAFRKMWPFFAM)), the figure is 0.8 µM. For `CSCC[C@H](NC(=O)[C@H](CCCCN)NC(=O)[C@H](CCCNC(=N)N)NC(=O)[C@H](Cc1ccccc1)NC(=O)[C@H](CO)NC(=O)[C@H](CCC(N)=O)NC(=O)[C@H](Cc1ccccc1)NC(=O)[C@H](C)NC(=O)[C@H](N)CCCNC(=N)N)C(=O)N[C@@H](Cc1c[nH]c2ccccc12)C(=O)N1CCC[C@H]1C(=O)N[C@@H](Cc1ccccc1)C(=O)N[C@@H](Cc1ccccc1)C(=O)N[C@@H](C)C(=O)N[C@H](CCSC)C(=O)O` [compound 48] (H-[dR]AFQSFRKMWPFFA[dM]-OH; N-terminus and C-terminus assumed), the IC50 worked out at 20 µM. On to `CSCC[C@H](NC(=O)[C@H](C)NC(=O)[C@H](Cc1ccccc1)NC(=O)[C@H](Cc1ccccc1)NC(=O)[C@@H]1CCCN1C(=O)[C@H](Cc1c[nH]c2ccccc12)NC(=O)[C@H](CCSC)NC(=O)[C@H](CCCCN)NC(=O)[C@H](CCCNC(=N)N)NC(=O)[C@H](Cc1ccccc1)NC(=O)[C@H](CO)NC(=O)[C@H](CCC(N)=O)NC(=O)[C@H](Cc1ccccc1)NC(=O)[C@H](C)NC(=O)[C@H](N)CCCNC(=N)N)C(=O)O` [compound 46] (H-[dR]AFQSFRKMWPFFAM-OH; N-terminus and C-terminus assumed), for which the IC50 was 12.5 µM. As to `CSCC[C@H](NC(=O)[C@H](C)NC(=O)[C@H](Cc1ccccc1)NC(=O)[C@H](Cc1ccccc1)NC(=O)[C@@H]1CCCN1C(=O)[C@H](Cc1c[nH]c2ccccc12)NC(=O)[C@H](CCSC)NC(=O)[C@H](CCCCN)NC(=O)[C@H](CCCNC(=N)N)NC(=O)[C@H](Cc1ccccc1)NC(=O)[C@H](CO)NC(=O)[C@H](CCC(N)=O)NC(=O)[C@H](Cc1ccccc1)NC(=O)[C@@H](CC(=O)O)NC(=O)[C@@H](N)CCCNC(=N)N)C(=O)O` [compound 3] (H-R[dD]FQSFRKMWPFFAM-OH), the IC50 came out at 27.2 µM.

These data come from patent publication US10654896B2, “FoxP3-binding peptides and uses thereof” (FUNDACIÓN PARA LA INVESTIGACIÓN MÉDICA APLICADA, priority 2016, dated 2020).
